Data: US12649723B2, “Carbonohydrazonoyl dicyanide compounds comprising 2 or more aryl or heteroaryl connected via linker and use thereof” (KOREA INSTITUTE OF SCIENCE AND TECHNOLOGY, priority 2020, dated 2026)

Columns and labels:
tau protein = target: T1, tau protein (Homo sapiens, UniProt P10636); assay: Tau-BiFC cell model: inhibition of tau protein aggregation; assay type: cell-based; conditions: for remaining activity at 10 µM: 48 h, compound 10 μM, BiFC fluorescence, Forskolin-only group = 100% tau protein-aggregated state, read-out: Response (% @10 μM); for IC50: Tau BiFC in cells, with Forskolin 30 μM, 48 hours
T1 construct: fused on or other part: Split fluorescent-protein halves for BiFC are fused to tau; In the published tau-BiFC line these are Venus VN173 and VC155
T1 sequence (P10636 2-441 isoform P10636-8 limits assumed): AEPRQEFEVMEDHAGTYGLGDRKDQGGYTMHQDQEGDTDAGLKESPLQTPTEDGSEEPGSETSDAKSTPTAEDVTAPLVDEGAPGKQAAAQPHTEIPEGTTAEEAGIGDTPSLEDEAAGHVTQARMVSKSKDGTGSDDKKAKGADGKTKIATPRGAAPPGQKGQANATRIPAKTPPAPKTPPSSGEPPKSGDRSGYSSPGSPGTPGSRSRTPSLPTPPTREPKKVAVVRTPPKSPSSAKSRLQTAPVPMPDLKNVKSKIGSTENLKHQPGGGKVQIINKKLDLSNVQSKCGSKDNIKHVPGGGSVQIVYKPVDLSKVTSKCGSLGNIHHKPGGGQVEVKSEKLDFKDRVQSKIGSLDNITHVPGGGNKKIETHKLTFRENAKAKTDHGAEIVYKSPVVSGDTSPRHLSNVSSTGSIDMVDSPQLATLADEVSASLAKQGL
Description: (§1) In order to select novel tau protein aggregation-inhibiting substances, tau-BiFC cell model, in which formation of tau oligomers in living cells is easily observed, was used. Tau-BiFC cells were aliquoted into a 384-well plate. On the next day, the cells were treated with each of the compounds prepared according to Examples 1 to 175 at concentrations of 1 μM, 3 μM, and 10 μM, together with Forskolin (at a treatment concentration of 30 μM), which is a compound inducing tau protein aggregation by activating tau […] PKA. After 48 hours, nuclei in the cells were stained using Hoechst (at a treatment concentration of 2 μg/mL), and BiFC fluorescence intensity was automatically measured using Operetta (PerkinElmer) to count stained nuclei in each well out of the entire well plate. The group treated only with Forskolin, which induces tau protein aggregation, was set to a reference point of a 100% tau protein-aggregated state, and the effects of the compounds were confirmed using the equation “BiFC fluorescence intensity due to compound synthesized according to embodiment of present invention/(fluorescence intensity of control group treated only with Forskolin inducing tau protein aggregation−fluorescence intensity of untreated control group)×100”. Furthermore, the degree of cytotoxicity induced by the newly synthesized compound was also measured based on the 100% cell viability of the group treated only with Forskolin as a reference, and the cytotoxicity value of each compound was calculated using the equation “(number of stained nuclei in group treated with compound/number of stained nuclei in group treated with Forskolin)×100”. Based on the treatment results, substances inhibiting intracellular tau protein aggregation were selected from a series of candidate groups showing a tau protein aggregation inhibition rate of 70% or more and cell viability of 100% at a compound treatment concentration of 10 μM or more.
(§2) In order to evaluate dose-dependent tau protein aggregation inhibition effects of the compounds selected according to Experimental Example 1 on tau protein aggregation, tau-BiFC cells were treated with the selected compounds at concentrations of 0.03 μM, […], 0.3 μM, 1 μM, 3 μM, 10 μM, and 30 μM, respectively, together with Forskolin (at a treatment concentration of 30 μM), which is a tau protein aggregation inducing substance. After 48 hours, tau protein aggregation reaction and degrees of cytotoxicity were analyzed by observing images of the cells. IC50 and toxicity of the compounds were analyzed by way of nonlinear regression analysis of prism software (Graph Pad).

Tau-BiFC cells = assay: Cell viability (cytotoxicity) in tau-BiFC cells, count of stained nuclei; assay type: cell-based; conditions: compound 10 μM; Forskolin-only group = 100% cell viability
Description: as §1, §2

Cc1cc(NN=C(C#N)C#N)ccc1Oc1cncnc1 [Compound 81, (3-methyl-4-(pyrimidin-5-yloxy)phenyl)carbonohydrazonoyl dicyanide]
remaining activity at 10 µM (tau protein): 0% | IC50 (tau protein): 550 nM | Cell viability (% @10 μM) (Tau-BiFC cells): 116.2%

N#CC(C#N)=NNc1ccc(Oc2cncnc2)c(F)c1 [Compound 82, (3-fluoro-4-(pyrimidin-5-yloxy)phenyl)carbonohydrazonoyl dicyanide]
remaining activity at 10 µM (tau protein): 0% | IC50 (tau protein): 2960 nM | Cell viability (% @10 μM) (Tau-BiFC cells): 126.4%

N#CC(C#N)=NNc1ccc(Oc2ccccn2)cc1 [Compound 83, (4-(pyridin-2-yloxy)phenyl)carbonohydrazonoyl dicyanide]
remaining activity at 10 µM (tau protein): 0% | IC50 (tau protein): 1140 nM | Cell viability (% @10 μM) (Tau-BiFC cells): 104%

N#CC(C#N)=NNc1ccc(Oc2cnccn2)cc1 [Compound 84, (4-(pyrazin-2-yloxy)phenyl)carbonohydrazonoyl dicyanide]
remaining activity at 10 µM (tau protein): 0% | IC50 (tau protein): 2120 nM | Cell viability (% @10 μM) (Tau-BiFC cells): 111.4%

N#CC(C#N)=NNc1ccc(Oc2cccnc2)cc1 [Compound 85, (4-(pyridin-3-yloxy)phenyl)carbonohydrazonoyl dicyanide]
remaining activity at 10 µM (tau protein): 0% | IC50 (tau protein): 1580 nM | Cell viability (% @10 μM) (Tau-BiFC cells): 99.1%

N#CC(C#N)=NNc1ccc(Oc2ccccc2C#N)cc1 [Compound 86, (4-(2-cyanophenoxy)phenyl)carbonohydrazonoyl dicyanide]
remaining activity at 10 µM (tau protein): 0% | IC50 (tau protein): 2120 nM | Cell viability (% @10 μM) (Tau-BiFC cells): 72.6%

N#CC(C#N)=NNc1ccc(Oc2ccc(C#N)cc2)cc1 [Compound 87, (4-(4-cyanophenoxy)phenyl)carbonohydrazonoyl dicyanide]
remaining activity at 10 µM (tau protein): 0% | IC50 (tau protein): 1220 nM | Cell viability (% @10 μM) (Tau-BiFC cells): 39.4%

N#CC(C#N)=NNc1ccc(Oc2cccc(C#N)c2)cc1 [Compound 88, (4-(3-cyanophenoxy)phenyl)carbonohydrazonoyl dicyanide]
remaining activity at 10 µM (tau protein): 0% | IC50 (tau protein): 3060 nM | Cell viability (% @10 μM) (Tau-BiFC cells): 44.4%

N#CC(C#N)=NNc1ccc(Oc2ccc(C(F)(F)F)nc2)cc1 [Compound 89, (4-(6-(trifluoromethyl)pyridin-3-yloxy)phenyl)carbonohydrazonoyl dicyanide]
remaining activity at 10 µM (tau protein): 0% | IC50 (tau protein): 2400 nM | Cell viability (% @10 μM) (Tau-BiFC cells): 32.5%

N#CC(C#N)=NNc1ccc(Oc2ccc(C(F)(F)F)cn2)cc1 [Compound 90, (4-(5-(trifluoromethyl)pyridin-2-yloxy)phenyl)carbonohydrazonoyl dicyanide]
remaining activity at 10 µM (tau protein): 0% | IC50 (tau protein): 1290 nM | Cell viability (% @10 μM) (Tau-BiFC cells): 43.7%

N#CC(C#N)=NNc1ccc(Oc2ncccn2)cc1 [Compound 91, (4-(pyrimidin-2-yloxy)phenyl)carbonohydrazonoyl dicyanide]
remaining activity at 10 µM (tau protein): 0% | IC50 (tau protein): 3120 nM | Cell viability (% @10 μM) (Tau-BiFC cells): 117%

N#CC(C#N)=NNc1ccc(Oc2cccnn2)cc1 [Compound 92, (4-(pyridazin-3-yloxy)phenyl)carbonohydrazonoyl dicyanide]
remaining activity at 10 µM (tau protein): 0% | IC50 (tau protein): 550 nM | Cell viability (% @10 μM) (Tau-BiFC cells): 116.8%

N#CC(C#N)=NNc1ccc(Oc2ccccc2F)cc1 [Compound 93, (4-(2-fluorophenoxy)phenyl)carbonohydrazonoyl dicyanide]
remaining activity at 10 µM (tau protein): 0% | IC50 (tau protein): 1290 nM | Cell viability (% @10 μM) (Tau-BiFC cells): 66.5%

N#CC(C#N)=NNc1ccc(Oc2cccc(F)c2)cc1 [Compound 94, (4-(3-fluorophenoxy)phenyl)carbonohydrazonoyl dicyanide]
remaining activity at 10 µM (tau protein): 0% | IC50 (tau protein): 1280 nM | Cell viability (% @10 μM) (Tau-BiFC cells): 33.6%

N#CC(C#N)=NNc1ccc(OCc2ccccc2)nc1 [Compound 95, (6-(benzyloxy)pyridin-3-yl)carbonohydrazonoyl dicyanide]
remaining activity at 10 µM (tau protein): 0% | Cell viability (% @10 μM) (Tau-BiFC cells): 71.9%

N#CC(C#N)=NNc1ccc(OCc2ccc(C(F)(F)F)cc2)nc1 [Compound 96, (6-(4-(trifluoromethyl)benzyloxy)pyridin-3-yl)carbonohydrazonoyl dicyanide]
remaining activity at 10 µM (tau protein): 0% | IC50 (tau protein): 400 nM | Cell viability (% @10 μM) (Tau-BiFC cells): 27.5%

N#CC(C#N)=NNc1ccc(OCc2ccccc2)c(C(F)(F)F)c1 [Compound 97, (4-(benzyloxy)-3-(trifluoromethyl)phenyl)carbonohydrazonoyl dicyanide]
remaining activity at 10 µM (tau protein): 0% | IC50 (tau protein): 100 nM | Cell viability (% @10 μM) (Tau-BiFC cells): 27.1%

N#CC(C#N)=NNc1ccc(OCc2ccc(C(F)(F)F)cc2)c(C(F)(F)F)c1 [Compound 98, (3-(trifluoromethyl)-4-(4-(trifluoromethyl)benzyloxy)phenyl)carbonohydrazonoyl dicyanide]
remaining activity at 10 µM (tau protein): 0% | IC50 (tau protein): 250 nM | Cell viability (% @10 μM) (Tau-BiFC cells): 26.9%

Cc1ccc(COc2ccc(NN=C(C#N)C#N)cn2)cc1 [Compound 99, (6-(4-methylbenzyloxy)pyridin-3-yl)carbonohydrazonoyl dicyanide]
remaining activity at 10 µM (tau protein): 0% | IC50 (tau protein): 240 nM | Cell viability (% @10 μM) (Tau-BiFC cells): 29.2%

N#CC(C#N)=NNc1ccc(OCCc2ccccc2)nc1 [Compound 100, (6-phenethoxypyridin-3-yl)carbonohydrazonoyl dicyanide]
remaining activity at 10 µM (tau protein): 0% | IC50 (tau protein): 780 nM | Cell viability (% @10 μM) (Tau-BiFC cells): 39.4%

N#CC(C#N)=NNc1ccc(OCCc2ccccc2)c(C(F)(F)F)c1 [Compound 101, (4-phenethoxy-3-(trifluoromethyl)phenyl)carbonohydrazonoyl dicyanide]
remaining activity at 10 µM (tau protein): 0% | IC50 (tau protein): 950 nM | Cell viability (% @10 μM) (Tau-BiFC cells): 30.1%

COc1ccc(CCOc2ccc(NN=C(C#N)C#N)cn2)cc1 [Compound 102, (6-(4-methoxyphenethoxy)pyridin-3-yl)carbonohydrazonoyl dicyanide]
remaining activity at 10 µM (tau protein): 0% | IC50 (tau protein): 960 nM | Cell viability (% @10 μM) (Tau-BiFC cells): 54.5%

N#CC(C#N)=NNc1ccc(OCCc2ccc(C(F)(F)F)cc2)nc1 [Compound 103, (6-(4-(trifluoromethyl)phenethoxy)pyridin-3-yl)carbonohydrazonoyl dicyanide]
remaining activity at 10 µM (tau protein): 0% | IC50 (tau protein): 2350 nM | Cell viability (% @10 μM) (Tau-BiFC cells): 37.9%

COc1cc(NN=C(C#N)C#N)ccc1C(=O)Nc1cncc(C)n1 [Compound 105, (3-methoxy-4-(6-methylpyrazin-2-ylcarbamoyl)phenyl)carbonohydrazonoyl dicyanide]
remaining activity at 10 µM (tau protein): 0% | IC50 (tau protein): 400 nM | Cell viability (% @10 μM) (Tau-BiFC cells): 142.9%

Cc1cnc(NC(=O)c2ccc(NN=C(C#N)C#N)cc2Cl)cn1 [Compound 106, (3-chloro-4-(5-methylpyrazin-2-ylcarbamoyl)phenyl)carbonohydrazonoyl dicyanide]
remaining activity at 10 µM (tau protein): 0% | Cell viability (% @10 μM) (Tau-BiFC cells): 184.9%

COc1cc(NN=C(C#N)C#N)ccc1C(=O)Nc1cncc(C)c1 [Compound 107, (3-methoxy-4-(5-methylpyridin-3-ylcarbamoyl)phenyl)carbonohydrazonoyl dicyanide]
remaining activity at 10 µM (tau protein): 0% | IC50 (tau protein): 600 nM | Cell viability (% @10 μM) (Tau-BiFC cells): 137.9%

COc1cc(NN=C(C#N)C#N)ccc1C(=O)Nc1ccc(C)cc1 [Compound 108, (3-methoxy-4-(p-tolylcarbamoyl)phenyl)carbonohydrazonoyl Dicyanide]
remaining activity at 10 µM (tau protein): 0% | IC50 (tau protein): 1400 nM | Cell viability (% @10 μM) (Tau-BiFC cells): 121.8%

COc1ccc(NC(=O)c2ccc(NN=C(C#N)C#N)cc2OC)cc1 [Compound 109, (3-methoxy-4-(4-methoxyphenylcarbamoyl)phenyl)carbonohydrazonoyl Dicyanide]
remaining activity at 10 µM (tau protein): 0% | IC50 (tau protein): 1400 nM | Cell viability (% @10 μM) (Tau-BiFC cells): 141.8%

Cc1cc(NN=C(C#N)C#N)ccc1NC(=O)c1cscn1 [Compound 111, (3-methyl-4-(thiazole-4-carboxamido)phenyl)carbonohydrazonoyl dicyanide]
remaining activity at 10 µM (tau protein): 0% | IC50 (tau protein): 500 nM | Cell viability (% @10 μM) (Tau-BiFC cells): 136.4%

N#CC(C#N)=NNc1ccc(NC(=O)c2cscn2)nc1 [Compound 112, (6-(thiazole-4-carboxamido)pyridin-3-yl)carbonohydrazonoyl dicyanide]
remaining activity at 10 µM (tau protein): 0% | IC50 (tau protein): 200 nM | Cell viability (% @10 μM) (Tau-BiFC cells): 158.2%
